The test system of one experiment is B16. The experiment is described as follows: In vitro cytotoxic activity, Calcein AM. In kind it is cell-based. The note with it: three days.
Experiment [1] concerns CEM (human lymphoblastoid leukemia). The experiment is described as follows: In vitro cytotoxic activity, Calcein AM. The note with it: three days. In kind it is cell-based. The gist of the method: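 CEM cells were seeded at 10^4/well in DMEM + 10% FBS and exposed to six concentrations from 200 to 0.2 μM, in triplicate, for 3 days at 37 °C and 5% CO2. Viable cells were then measured by Calcein AM fluorescence after 1 h loading.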

Experiment [2] addresses cdc2a-MS protein (plant CDK, cdc2Ms kinase) (Vicia faba, UniProt A0AAV0YZ35). The experiment is described as follows: CDK inhibitory activity on plant kinases (plant CDK). The settings on record: histone H1 phosphorylation. In kind it is biochemical. On the procedure: Protein extraction and purification of pant CDK by binding to p13^suc1-beads or immunopurification with an antibody specific to the cdc2a-MS protein was carried out as described previously (Bögre et al. 1997, Plant Physiol. 113, 1997, 841-852). The MMK1 protein kinase was purified with a specific antibody from Vicia faba extracts as described by Bögre et al. 1997a, Plant Cell 9, 75-83). Protein kinase activity was measures as described above in Example 20. The quantification of radioactivity incorporated into histone H1 or myelin basic protein was undertaken using phosphoimager (FIG. 2).

Sequence of cdc2a-MS protein (plant CDK, cdc2Ms kinase) (A0AAV0YZ35 1-294): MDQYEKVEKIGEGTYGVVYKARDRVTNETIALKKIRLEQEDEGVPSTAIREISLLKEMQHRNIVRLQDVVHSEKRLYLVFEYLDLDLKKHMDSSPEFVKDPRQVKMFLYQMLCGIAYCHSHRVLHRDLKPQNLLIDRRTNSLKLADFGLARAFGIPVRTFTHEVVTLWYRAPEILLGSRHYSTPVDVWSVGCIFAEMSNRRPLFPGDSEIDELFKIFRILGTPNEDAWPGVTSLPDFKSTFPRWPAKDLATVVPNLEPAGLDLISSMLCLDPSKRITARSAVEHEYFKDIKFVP

One may read the GI50 as the concentration that inhibits growth by half. The IC50 is the point on the concentration scale where inhibition reaches its midpoint. A higher IC50 goes with a need for much substance. With `COc1cc(O)c(CNc2nc(N[C@@H](CO)C(C)C)nc3c(C(C)C)n[nH]c23)c(O)c1`, the concentration for 50% growth inhibition (GI50) in the experiment with B16 was 2.7 µM; in experiment [1] it was 1.2 µM. Inhibition in experiment [2] was half-maximal at 0.0007 µM (IC50).

Source of the values: patent publication US7745450B2, “Pyrazolo[4,3-d]pyrimidines, processes for their preparation and methods for therapy” (Institute of Experimental Botany, priority 2002, dated 2010).
